How the values were obtained:
Type in all cases: in vivo
[1] = tested on: common lambsquater; assay: Test Example 3: herbicidal effects in soil treatment; details: dose 3.2 g/a
Procedure, shortened: (§1)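 Seeds were sown in sterilized diluvial soil and covered with about 1.5 cm of soil. Compounds, formulated as emulsifiable concentrates and diluted with water, were sprayed evenly over the soil surface at set doses in g/a. Herbicidal effect was scored on a rating scale three weeks later.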

[2] = tested on: Italian ryegrass; assay: as above; details: dose 3.2 g/a
Procedure, shortened: as §1

[3] = tested on: barnyardgrass; assay: as above; details: dose 3.2 g/a
Procedure, shortened: as §1

[4] = tested on: giant foxtail; assay: as above; details: dose 3.2 g/a
Procedure, shortened: as §1

[5] = tested on: beadstraw; assay: as above; details: dose 3.2 g/a
Procedure, shortened: as §1

[6] = tested on: common ragweed; assay: as above; details: dose 3.2 g/a
Procedure, shortened: as §1

[7] = tested on: wild oat; assay: as above; details: dose 3.2 g/a
Procedure, shortened: as §1

[8] = tested on: common chickweed; assay: as above; details: dose 3.2 g/a
Procedure, shortened: as §1

[9] = tested on: water foxtail; assay: as above; details: dose 3.2 g/a
Procedure, shortened: as §1

[10] = tested on: redroot pigweed; assay: as above; details: dose 3.2 g/a
Procedure, shortened: as §1

[11] = tested on: velvetleaf; assay: as above; details: dose 3.2 g/a
Procedure, shortened: as §1

[12] = tested on: large crabgrass; assay: as above; details: dose 3.2 g/a
Procedure, shortened: as §1

[13] = tested on: barnyardgrass; assay: Test Example 2: herbicidal effects during the vegetation period under submerged conditions; details: treatment during the vegetation period under submerged conditions; dose 2.52 g/a
Procedure, shortened: (§2)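 Barnyardgrass, bulrush and ducksalad were co-sown in alluvial soil flooded to 4 cm and grown in a greenhouse at 25 to 30° C. At the 1- or 2-leaf stage, water-diluted emulsifiable concentrates went onto the water surface at set doses (g/a). Herbicidal effect was scored three weeks later on a graded scale.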

[14] = tested on: ducksalad; assay: as above; details: treatment during the vegetation period under submerged conditions; dose 2.52 g/a
Procedure, shortened: as §2

[15] = tested on: bulrush; assay: as above; details: treatment during the vegetation period under submerged conditions; dose 2.52 g/a
Procedure, shortened: as §2

[16] = tested on: transplanted rice; assay: Test Example 1: preemergence treatment under submerged conditions, effect on crop; details: dose 2.52 g/a
Procedure, shortened: (§3)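 Alluvial soil was flooded to 4 cm, sown with barnyardgrass, bulrush and ducksalad, and planted with 2.5-leaf rice seedlings. On the seeding day, water-diluted emulsifiable concentrates were applied to the water surface at set doses (g/a). After three weeks in a 25 to 30° C. greenhouse, mortality was scored 0–5.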

[17] = tested on: barnyardgrass; assay: Test Example 1: herbicidal effects in preemergence treatment under submerged conditions; details: dose 2.52 g/a
Procedure, shortened: as §3

[18] = tested on: ducksalad; assay: as above; details: dose 2.52 g/a
Procedure, shortened: as §3

[19] = tested on: bulrush; assay: as above; details: dose 2.52 g/a
Procedure, shortened: as §3

[20] = tested on: common lambsquater; assay: Test Example 4: herbicidal effect in foliage treatment; details: dose 3.2 g/a, three weeks after application
Procedure, shortened: (§4)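 Herbicidal effect was rated on an evaluation scale three weeks after treatment. Plants had been raised 14 days at 25 to 30° C in sterilized diluvial soil, then received foliar sprays of emulsifiable concentrate diluted in water at predetermined doses expressed as g per are.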

[21] = tested on: Italian ryegrass; assay: as above; details: dose 3.2 g/a, three weeks after application
Procedure, shortened: as §4

[22] = tested on: barnyardgrass; assay: as above; details: dose 3.2 g/a, three weeks after application
Procedure, shortened: as §4

[23] = tested on: giant foxtail; assay: as above; details: dose 3.2 g/a, three weeks after application
Procedure, shortened: as §4

[24] = tested on: beadstraw; assay: as above; details: dose 3.2 g/a, three weeks after application
Procedure, shortened: as §4

[25] = tested on: common ragweed; assay: as above; details: dose 3.2 g/a, three weeks after application
Procedure, shortened: as §4

[26] = tested on: wild oat; assay: as above; details: dose 3.2 g/a, three weeks after application
Procedure, shortened: as §4

[27] = tested on: common chickweed; assay: as above; details: dose 3.2 g/a, three weeks after application
Procedure, shortened: as §4

[28] = tested on: water foxtail; assay: as above; details: dose 3.2 g/a, three weeks after application
Procedure, shortened: as §4

[29] = tested on: redroot pigweed; assay: as above; details: dose 3.2 g/a, three weeks after application
Procedure, shortened: as §4

[30] = tested on: velvetleaf; assay: as above; details: dose 3.2 g/a, three weeks after application
Procedure, shortened: as §4

[31] = tested on: large crabgrass; assay: as above; details: dose 3.2 g/a, three weeks after application
Procedure, shortened: as §4

[32] = tested on: posumbu knotweed; assay: as above; details: dose 3.2 g/a, three weeks after application
Procedure, shortened: as §4

Structure (SMILES)	L: common lambsquater, herbicidal effect (evaluation scale 0-5) [1]	H: Italian ryegrass, herbicidal effect (evaluation scale 0-5) [2]	A: barnyardgrass, herbicidal effect (evaluation scale 0-5) [3]	E: giant foxtail, herbicidal effect (evaluation scale 0-5) [4]	O: beadstraw, herbicidal effect (evaluation scale 0-5) [5]	J: common ragweed, herbicidal effect (evaluation scale 0-5) [6]	F: wild oat, herbicidal effect (evaluation scale 0-5) [7]	N: common chickweed, herbicidal effect (evaluation scale 0-5) [8]	G: water foxtail, herbicidal effect (evaluation scale 0-5) [9]	K: redroot pigweed, herbicidal effect (evaluation scale 0-5) [10]	I: velvetleaf, herbicidal effect (evaluation scale 0-5) [11]	D: large crabgrass, herbicidal effect (evaluation scale 0-5) [12]	A: barnyardgrass, herbicidal effect (evaluation scale 0-5) [13]	C: ducksalad, herbicidal effect (evaluation scale 0-5) [14]	B: bulrush, herbicidal effect (evaluation scale 0-5) [15]	a: transplanted rice, effect on crop (evaluation scale 0-5) [16]	A: barnyardgrass, herbicidal effect (evaluation scale 0-5) [17]	C: ducksalad, herbicidal effect (evaluation scale 0-5) [18]	B: bulrush, herbicidal effect (evaluation scale 0-5) [19]	L: common lambsquater, herbicidal effect [20]	other results
CCOC(=O)N(c1ccccc1CN1CC(C)(C)OCC1=O)S(=O)(=O)C(F)(F)F [Compound I-16]	3 (mortality of at least 40% and less than 70%)	4 (mortality of at least 70% and less than 90%)	5 (mortality of 90% or above (nearly complete death))	5 (mortality of 90% or above (nearly complete death))	0 (mortality of less than 5% (almost ineffective))	5 (mortality of 90% or above (nearly complete death))	3 (mortality of at least 40% and less than 70%)	5 (mortality of 90% or above (nearly complete death))	5 (mortality of 90% or above (nearly complete death))	5 (mortality of 90% or above (nearly complete death))	5 (mortality of 90% or above (nearly complete death))	5 (mortality of 90% or above (nearly complete death))	5 (mortality of 90% or above (nearly complete death))	5 (mortality of 90% or above (nearly complete death))	5 (mortality of 90% or above (nearly complete death))	2 (mortality of at least 20% and less than 40%)	5 (mortality of 90% or above (nearly complete death))	5 (mortality of 90% or above (nearly complete death))	5 (mortality of 90% or above (nearly complete death))	2 (mortality of at least 20% and less than 40%)	H: Italian ryegrass, herbicidal effect [21]: 4 (mortality of at least 70% and less than 90%); A: barnyardgrass, herbicidal effect [22]: 5 (mortality of 90% or above (nearly complete death)); E: giant foxtail, herbicidal effect [23]: 4 (mortality of at least 70% and less than 90%); O: beadstraw, herbicidal effect [24]: 3 (mortality of at least 40% and less than 70%); J: common ragweed, herbicidal effect [25]: 5 (mortality of 90% or above (nearly complete death)); F: wild oat, herbicidal effect [26]: 3 (mortality of at least 40% and less than 70%); N: common chickweed, herbicidal effect [27]: 5 (mortality of 90% or above (nearly complete death)); G: water foxtail, herbicidal effect [28]: 5 (mortality of 90% or above (nearly complete death)); K: redroot pigweed, herbicidal effect [29]: 2 (mortality of at least 20% and less than 40%); I: velvetleaf, herbicidal effect [30]: 5 (mortality of 90% or above (nearly complete death)); D: large crabgrass, herbicidal effect [31]: 4 (mortality of at least 70% and less than 90%); M: posumbu knotweed, herbicidal effect [32]: 3 (mortality of at least 40% and less than 70%)
COC(=O)N(c1ccccc1CN1COC(C)(C)CC1=O)S(=O)(=O)C(F)(F)F [II-22]	4 (mortality of at least 70% and less than 90%)	5 (mortality of 90% or above (nearly complete death))	5 (mortality of 90% or above (nearly complete death))	3 (mortality of at least 40% and less than 70%)	5 (mortality of 90% or above (nearly complete death))	3 (mortality of at least 40% and less than 70%)	0 (mortality of less than 5% (almost ineffective))	4 (mortality of at least 70% and less than 90%)	5 (mortality of 90% or above (nearly complete death))	0 (mortality of less than 5% (almost ineffective))	5 (mortality of 90% or above (nearly complete death))	5 (mortality of 90% or above (nearly complete death))	5 (mortality of 90% or above (nearly complete death))	5 (mortality of 90% or above (nearly complete death))	5 (mortality of 90% or above (nearly complete death))	0 (mortality of less than 5% (almost ineffective))	5 (mortality of 90% or above (nearly complete death))	5 (mortality of 90% or above (nearly complete death))	5 (mortality of 90% or above (nearly complete death))	3 (mortality of at least 40% and less than 70%)	H: Italian ryegrass, herbicidal effect [21]: 4 (mortality of at least 70% and less than 90%); A: barnyardgrass, herbicidal effect [22]: 5 (mortality of 90% or above (nearly complete death)); E: giant foxtail, herbicidal effect [23]: 5 (mortality of 90% or above (nearly complete death)); O: beadstraw, herbicidal effect [24]: 5 (mortality of 90% or above (nearly complete death)); J: common ragweed, herbicidal effect [25]: 4 (mortality of at least 70% and less than 90%); F: wild oat, herbicidal effect [26]: 0 (mortality of less than 5% (almost ineffective)); N: common chickweed, herbicidal effect [27]: 3 (mortality of at least 40% and less than 70%); G: water foxtail, herbicidal effect [28]: 5 (mortality of 90% or above (nearly complete death)); K: redroot pigweed, herbicidal effect [29]: 0 (mortality of less than 5% (almost ineffective)); I: velvetleaf, herbicidal effect [30]: 5 (mortality of 90% or above (nearly complete death)); D: large crabgrass, herbicidal effect [31]: 5 (mortality of 90% or above (nearly complete death)); M: posumbu knotweed, herbicidal effect [32]: 3 (mortality of at least 40% and less than 70%)

Source: patent US20120029187A1, “HALOALKYLSULFONANILIDE DERIVATIVE” (Nissan Chemical Industries, Ltd., priority 2009, published 2012)
